{
  "source": "patent US7820689B2",
  "about": "“Methods and compositions for preventing or treating cardiovascular disease” (priority 2006, dated 2010)",
  "key": {"[1]": {"tested_on": "TNF-α production from the THP-1 cell culture after LPS stimulation", "assay": "LPS-induced TNF-α production in PMA-differentiated THP-1 macrophage culture (ELISA)", "format": "cell-based, human", "settings": "for TNF-α production after LPS: 1 h before 100 ng/mL LPS, 24 h; for TNFα in medium: LPS 100 ng/mL, LPS alone 8.02±0.42", "protocol": "(§1) THP-1 cells were grown in the RPMI-1640 medium containing 10% fetal bovine serum at 37° C. in 5% CO2. The cells were differentiated to macrophages after treatment of the culture with 100 nM PMA for 24 hours. The cell suspension (5×10^5) was added in 0.5 mL into each well of the tissue culture plates. For each experiment, naloxone was prepared immediately before use. LPS was dissolved in sterile water and stored at −70° C. in aliquots. LDL was isolated from human endotoxin-free heparin plasma and was oxidized using CuSO4. In brief, LDL (1 mL, 1 mg/mL) was dialyzed in 500 mL phosphate-buffered saline (PBS, pH 7.4) overnight. Copper sulfate was added to a final concentration of 5 μM, and the LDL was allowed to oxidize at room temperature for 24 hours.\nThe TNF-α level in the supernatant was determined by ELISA.\n(§2) The supernatants were harvested and the TNF-α, IL-6, and MCP-1 levels were determined by ELISA. Superoxide production in the THP-1 cell culture was measured by lucigenin-enhanced chemiluminescence as described previously (Khadour F H, Panas D, Ferdinandy P, et al. Am J Physiol Heart Circ Physiol, 28:H1108-15 2002). LPS-treated THP-1 cells were treated with PBS containing 1.25 mM lucigenin, and counts were obtained for a 10-minute period in a luminometer (Berthold Technologies, Germany) as relative light units (RLU) emitted. Background counts determined in cell-free preparations were subtracted. Superoxide levels were reported as RLU per 10 minutes and were normalized to the volume (mL) of cell suspension added (i.e., RUL/10 min/mL).\nTo investigate the DM effect on macrophage activation, determined the effective DM concentrations were first needed. In a pilot experiment, the effective DM concentration that inhibited TNF-α production from macrophages was examined. […] The THP-1 cell culture was pretreated for 1 hour with various concentrations of DM (1-10^−8 μM) prior to treatment with 100 ng/mL LPS for 24 hours. The TNF-α level in the supernatant was determined by ELISA. […] One μM DM could reduce TNF-α production up to 44 percent in the THP-1 cell culture after LPS stimulation (Table 3). Therefore, subsequent experiments were performed with these effective DM concentrations (0.01, 0.1, and 1 μM)."}, "[2]": {"tested_on": "TNF-α production from the THP-1 cell culture after LPS stimulation", "assay": "LPS-induced TNF-α production in PMA-differentiated THP-1 macrophage culture (ELISA)", "format": "cell-based, human", "settings": "for TNF-α in medium: LPS, LPS alone 8.85±0.81; for TNF-α production after LPS: 1 h before 100 ng/mL LPS, 24 h"}, "[3]": {"tested_on": "superoxide in the thoracic aorta", "assay": "Superoxide production in thoracic aorta of apoE-deficient mice, lucigenin chemiluminescence", "format": "in vivo", "settings": "10 weeks, controls 534,000±145,000", "protocol": "ApoE-deficient mice were treated daily with DM 5 mg/kg/day (n=9), 10 mg/kg/day (n=9), 20 mg/kg/day (n=9) or 40 mg/kg/day (n=11) for 10 weeks. Production of superoxide in PMN (1×10^6 cells/mL PBS) (A) was measured by lucigenin-enhanced chemiluminescence. The results are expressed as mean±SD. (P<0.05, control versus 10 mg/kg/day; P<0.001, control versus 20 mg/kg/day and 40 mg/kg/day). Production of superoxide in the thoracic aorta (B) was also measured by lucigenin-enhanced chemiluminescence. The results are expressed as mean±SD. (P<0.05, control versus 10 mg/kg/day and 40 mg/kg/day; P<0.01, control versus 20 mg/kg/day).\nHaving established the DM inhibitory effect on macrophage activation and NADPH oxidase, we next examined the functional consequences of which in vivo. […] Sections of left carotid arteries from the mice were stained with DHE and then imaged with a laser scanning confocal microscope."}, "macrophage NADPH oxidase": {"tested_on": "macrophage NADPH oxidase", "assay": "Macrophage NADPH oxidase activity after LPS, lucigenin chemiluminescence", "format": "cell-based, human", "settings": "LPS alone 3,310,000±1,670,000", "protocol": "THP-1 cell culture was pretreated for 1 hour with the indicated concentrations of DM before stimulation with 100 ng/mL LPS. Lysis buffer was added to the cells and centrifuged. The supernatant was discarded and the pellet was resuspended. NADPH oxidase activity was measured by mixing 30 μg protein, 5 μM lucigenin, and 100 μM NADPH. Chemiluminescence was determined every 10 seconds for 15 minutes. Data are presented as mean±SD (n=8-15). ***P<0.001 compared with the LPS-treated cells."}, "[4]": {"tested_on": "TNF-α release from THP-1 cells after oxLDL stimulation", "assay": "oxLDL-induced TNF-α release in THP-1 macrophage culture (ELISA)", "format": "cell-based, human", "settings": "for TNF-α in medium: oxLDL, oxLDL alone 2.64±0.61; for TNFα in medium: oxLDL 10 μg/mL, oxLDL alone 1.70±0.06", "protocol": "as §1, §2"}, "[5]": {"tested_on": "CD45-positive cells in lungs", "assay": "Pulmonary inflammatory cell (CD45-positive) infiltration in LPS-treated mice, immunofluorescence", "format": "in vivo", "settings": "LPS only 103±16", "protocol": "All mice then received 20 mg/kg LPS by intraperitoneal injection. Blood samples were obtained at 6 hours after LPS injection from a catheter placed in the left carotid artery. Blood samples were centrifuged, and the plasma TNF-α levels were measured by ELISA. Lungs were harvested from the animals 6 hours after LPS injection in each group as described above. The tissues were fixed in 4% paraformaldehyde and embedded in paraffin for histopathological examination. The presence of inflammatory cells in lungs was determined by immunofluorescence. The sections were incubated with rat monoclonal antibody against mouse CD45, a leukocyte common antigen (1:50 dilution, Pharmingen). After washing, fluorescein isothiocyanate-conjugated sheep […] immunoglobulin (Amersham Pharmacia Biotech) was applied as a secondary antibody. […] The total CD45-positive cell number was counted in five randomly selected sections under high power field magnification (400×) for each mouse. Oxidative fluorescent microtopography with the oxidative fluorescent dye dihydroethidium (DHE) was used to evaluate the in situ production of superoxide in aorta. Aortas were harvested from the animals at 6 hours after LPS injection in each group as described above. Unfixed frozen ring segments were cut into 30-μm-thick sections and placed on a glass slide. DHE (10 μM) was topically applied to each tissue section and a cover slip was applied. Slides were incubated in a light-protected humidified chamber at 37° C. for 30 minutes. Fluorescence was detected with a laser scanning confocal microscope (Leica Microsystems, Germany) with excitation at 488-nm and detection at 585-nm using a long-pass filter."}},
  "data": [
    {"smiles": "COc1ccc2c(c1)[C@]13CCCC[C@@H]1[C@H](C2)N(C)CC3", "note": "[DM, (+)-3-methoxy-17-methyl-9α,13α,14α-morphinan]", "values": [
      {"measurement": "TNF-α in medium", "setting": "[1]; DM 0.01 μM pretreatment, LPS, LPS alone 8.85±0.81", "value": "6.93 ± 0.76", "unit": "ng/mL"},
      {"measurement": "TNF-α production after LPS", "setting": "[1]; DM pretreatment 1 μM", "value": "56 ± 10", "unit": "% control"},
      {"measurement": "TNF-α production after LPS", "setting": "[1]; DM pretreatment 10^−2 μM", "value": "74 ± 4", "unit": "% control"},
      {"measurement": "TNF-α production after LPS", "setting": "[1]; DM pretreatment 10^−6 μM", "value": "83 ± 3", "unit": "% control"},
      {"measurement": "reduction of TNF-α production", "setting": "[1]; One μM DM, THP-1 cell culture after LPS stimulation", "value": "up to 44%"},
      {"measurement": "most effective DM concentrations that suppressed macrophage TNF-α production", "setting": "[1]; THP-1, after LPS stimulation", "value": "0.01 to 1", "unit": "µM"},
      {"measurement": "TNF-α in medium", "setting": "[2]; DM 0.1 μM pretreatment", "value": "6.42 ± 0.73", "unit": "ng/mL"},
      {"measurement": "TNF-α in medium", "setting": "[2]; DM 1 μM pretreatment", "value": "5.85 ± 1.12", "unit": "ng/mL"},
      {"measurement": "TNF-α production after LPS", "setting": "[2]; DM pretreatment 10^−1 μM", "value": "72 ± 2", "unit": "% control"},
      {"measurement": "TNF-α production after LPS", "setting": "[2]; DM pretreatment 10^−4 μM", "value": "81 ± 9", "unit": "% control"},
      {"measurement": "TNF-α production after LPS", "setting": "[2]; DM pretreatment 10^−8 μM", "value": "95 ± 7", "unit": "% control"},
      {"measurement": "superoxide in the thoracic aorta", "setting": "[3]; 5 mg/kg, P=NS", "value": "424,000±141,000 RLU/15 min"},
      {"measurement": "superoxide in the thoracic aorta", "setting": "[3]; 10 mg/kg", "value": "377,000±97,000 RLU/15 min"},
      {"measurement": "superoxide in the thoracic aorta", "setting": "[3]; 20 mg/kg", "value": "341,000±94,000 RLU/15 min"},
      {"measurement": "superoxide in the thoracic aorta", "setting": "[3]; 40 mg/kg", "value": "379,000±84,000 RLU/15 min"},
      {"measurement": "NADPH oxidase activity", "setting": "macrophage NADPH oxidase; DM 0.01 μM pretreatment", "value": "1,360,000±860,000 RLU/15 min/mL"},
      {"measurement": "NADPH oxidase activity", "setting": "macrophage NADPH oxidase; DM 0.1 μM pretreatment", "value": "1,280,000±540,000 RLU/15 min/mL"},
      {"measurement": "NADPH oxidase activity", "setting": "macrophage NADPH oxidase; DM 1 μM pretreatment", "value": "1,400,000±730,000 RLU/15 min/mL"},
      {"measurement": "TNF-α in medium", "setting": "[4]; DM 0.01 μM pretreatment", "value": "1.80 ± 0.53", "unit": "ng/mL"},
      {"measurement": "TNF-α in medium", "setting": "[4]; DM 0.1 μM pretreatment", "value": "1.75 ± 0.33", "unit": "ng/mL"},
      {"measurement": "TNF-α in medium", "setting": "[4]; DM 1 μM pretreatment", "value": "1.77 ± 0.42", "unit": "ng/mL"}
    ]},
    {"smiles": "C=CCN1CC[C@]23c4c5ccc(O)c4O[C@H]2C(=O)CC[C@@]3(O)[C@H]1C5", "note": "[Naloxone, 17-allyl-4,5α-epoxy-3,14-dihydroxymorphinan-6-one]", "values": [
      {"measurement": "TNFα in medium", "setting": "[1]; 0.1 μM pretreatment", "value": "4.10 ± 0.37", "unit": "ng/mL"},
      {"measurement": "TNFα in medium", "setting": "[1]; 1 μM pretreatment", "value": "4.41 ± 0.36", "unit": "ng/mL"},
      {"measurement": "reduction of TNFα production", "setting": "[1]; 0.01-1 μM, THP1 cell culture after LPS stimulation", "value": 50, "unit": "%"},
      {"measurement": "TNFα in medium", "setting": "[2]; 0.01 μM pretreatment, LPS 100 ng/mL, LPS alone 8.02±0.42", "value": "4.28 ± 0.39", "unit": "ng/mL"},
      {"measurement": "most effective naloxone concentration range", "setting": "[2]; inhibition of TNF-α production, THP-1, LPS", "value": "0.01 to 1", "unit": "µM"},
      {"measurement": "TNF-α production after LPS", "setting": "[2]; naloxone pretreatment 1 μM", "value": "55 ± 2", "unit": "% control"},
      {"measurement": "TNF-α production after LPS", "setting": "[2]; naloxone pretreatment 10^−1 μM", "value": "51 ± 6", "unit": "% control"},
      {"measurement": "TNF-α production after LPS", "setting": "[2]; naloxone pretreatment 10^−2 μM", "value": "53 ± 6", "unit": "% control"},
      {"measurement": "TNF-α production after LPS", "setting": "[2]; naloxone pretreatment 10^−3 μM", "value": "67 ± 3", "unit": "% control"},
      {"measurement": "TNF-α production after LPS", "setting": "[2]; naloxone pretreatment 10^−4 μM", "value": "74 ± 7", "unit": "% control"},
      {"measurement": "TNF-α production after LPS", "setting": "[2]; naloxone pretreatment 10^−5 μM", "value": "93 ± 4", "unit": "% control"},
      {"measurement": "TNF-α production after LPS", "setting": "[2]; naloxone pretreatment 10^−6 μM", "value": "90 ± 10", "unit": "% control"},
      {"measurement": "infiltration of inflammatory cells in the lungs (CD45-positive cell number)", "setting": "[5]; 10 mg/kg i.p. before LPS", "value": "74±10"},
      {"measurement": "infiltration of inflammatory cells in the lungs (CD45-positive cell number)", "setting": "[5]; 20 mg/kg i.p. before LPS", "value": "58±15"},
      {"measurement": "infiltration of inflammatory cells in the lungs (CD45-positive cell number)", "setting": "[5]; 25 mg/kg i.p. before LPS", "value": "62±12"},
      {"measurement": "TNFα in medium", "setting": "[4]; 0.01 μM pretreatment", "value": "0.85 ± 0.12", "unit": "ng/mL"},
      {"measurement": "TNFα in medium", "setting": "[4]; 0.1 μM pretreatment", "value": "0.62 ± 0.04", "unit": "ng/mL"},
      {"measurement": "TNFα in medium", "setting": "[4]; 1 μM pretreatment", "value": "0.60 ± 0.05", "unit": "ng/mL"}
    ]}
  ]
}
